Assay results from patent US20250382305A1 (PTC THERAPEUTICS, INC., priority 2022, published 2025).

Key:
[1] = test system: Total ATXN3 (tATXN3) protein; test: Endogenous Total ATXN3 (tATXN3) Protein Assay (MSD immunoassay of cell lysates); type: cell-based; conditions: average IC50, total ATXN3 protein in cell lysate after 48 h with compound (Table 1)
In short: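 By electrochemiluminescent MSD sandwich immunoassay (mouse monoclonal capture, rabbit monoclonal and SULFO-TAG anti-rabbit detection), endogenous ATXN3 was quantified in lysates of cells treated 48 h at 37° C at 10,000 cells/well. Treatment used a 7-point 3.16-fold duplicate dilution series, with average IC50 grouped into star categories.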

ATXN3 pre-mRNA = test: RT-qPCR Assay to Quantify Exon 4 Skipping in ATXN3 pre-mRNA in Cells; type: cell-based; conditions: percent exon 4 skipping in ATXN3 pre-mRNA, RT-qPCR of cell lysates; average IC50
In short: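 IC50 derives from a dose-response fit of percent exon 4 skipping, quantified by RT-qPCR on crude lysates. Compounds tested as 7-point 3.16-fold dilutions in duplicate; cells (10,000/well) were exposed for 24 h at 37 °C before lysis.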

Molecule | IC50 [1] | IC50 (ATXN3 pre-mRNA)
N[C@@H]1CCNCC[C@H]1c1sc2c(NCc3cccs3)cc(Cl)nc2c1Br.N[C@H]1CCNCC[C@@H]1c1sc2c(NCc3cccs3)cc(Cl)nc2c1Br (mixture of isomers) [Compound 147, 2-((4R,5R)-5-aminoazepan-4-yl)-3-bromo-5-chloro-N-(thiophen-2-ylmethyl)thieno[3,2-b]pyridin-7-amine and 2-((4S,5S)-5-aminoazepan-4-yl)-3-bromo-5-chloro-N-(thiophen-2-ylmethyl)thieno[3,2-b]pyridin-7-amine] | > 1000 nM | > 1000 nM
N[C@@H]1CC=CC[C@H]1c1sc2c(NCc3ccccc3)nc(Cl)nc2c1I [Compound 414, 6-((1R,6R)-6-aminocyclohex-3-en-1-yl)-N-benzyl-2-chloro-7-iodothieno[3,2-d]pyrimidin-4-amine] | 300 to 1000 nM | 30 to 300 nM
CC#CCNc1cc(Cl)nc2c(Br)c([C@H]3CC=CC[C@@H]3N)sc12 [Compound 230, 2-((1S,6S)-6-aminocyclohex-3-en-1-yl)-3-bromo-N-(but-2-yn-1-yl)-5-chlorothieno[3,2-b]pyridin-7-amine] | ≤ 30 nM | ≤ 30 nM
6-((3R,4S)-3-aminotetrahydro-2H-pyran-4-yl)-2,7-dichloro-N-(furan-2-ylmethyl)thieno[3,2-d]pyrimidin-4-amine and 6-((3S,4R)-3-aminotetrahydro-2H-pyran-4-yl)-2,7-dichloro-N-(furan-2-ylmethyl)thieno[3,2-d]pyrimidin-4-amine [Compound 354] | 30 to 300 nM | 30 to 300 nM
C/C=C/CNc1cc(Cl)nc2c(C)c([C@H]3CC=CC[C@@H]3N)sc12 [Compound 378, 2-((1S,6S)-6-aminocyclohex-3-en-1-yl)-N-((E)-but-2-en-1-yl)-5-chloro-3-methylthieno[3,2-b]pyridin-7-amine] | 30 to 300 nM | 30 to 300 nM
N[C@@H]1CC=CC[C@H]1c1c(Cl)c2nc(Cl)cc(NCc3ccccc3)c2n1C(F)F [Compound 417, 2-((1R,6R)-6-aminocyclohex-3-en-1-yl)-N-benzyl-3,5-dichloro-1-(difluoromethyl)-1H-pyrrolo[3,2-b]pyridin-7-amine] | ≤ 30 nM | ≤ 30 nM
2-((2R,3R)-3-amino-5-methylenetetrahydro-2H-pyran-2-yl)-3-bromo-5-chloro-N-(thiophen-2-ylmethyl)thieno[3,2-b]pyridin-7-amine and 2-((2S,3S)-3-amino-5-methylenetetrahydro-2H-pyran-2-yl)-3-bromo-5-chloro-N-(thiophen-2-ylmethyl)thieno[3,2-b]pyridin-7-amine [Compound 259] | 30 to 300 nM | 30 to 300 nM
N[C@H]1CCCO[C@@H]1c1sc2c(NCc3ccncc3)cc(Cl)nc2c1Br [Compound 251, 2-((2S,3S)-3-aminotetrahydro-2H-pyran-2-yl)-3-bromo-5-chloro-N-(pyridin-4-ylmethyl)thieno[3,2-b]pyridin-7-amine] | 30 to 300 nM | ≤ 30 nM
N[C@H]1CCCO[C@@H]1c1sc2c(NCc3cccs3)cc(Cl)nc2c1Cl [Compound 18, 2-[(2S,3S)-3-aminotetrahydropyran-2-yl]-3,5-dichloro-N-(2-thienylmethyl)thieno[3,2-b]pyridin-7-amine] | ≤ 30 nM | ≤ 30 nM
N[C@H]1CC=CC[C@@H]1c1sc2c(NCc3ccco3)nc(Cl)nc2c1I [Compound 172, 6-((1S,6S)-6-aminocyclohex-3-en-1-yl)-2-chloro-N-(furan-2-ylmethyl)-7-iodothieno[3,2-d]pyrimidin-4-amine] | ≤ 30 nM | ≤ 30 nM
N[C@H]1COCC[C@@H]1c1sc2c(NCc3nccs3)cc(Cl)nc2c1Br [Compound 285, 2-((3R,4S)-3-aminotetrahydro-2H-pyran-4-yl)-3-bromo-5-chloro-N-(thiazol-2-ylmethyl)thieno[3,2-b]pyridin-7-amine] | 30 to 300 nM | 30 to 300 nM
6-((3R,4S)-3-aminotetrahydro-2H-pyran-4-yl)-2-chloro-N-(furan-2-ylmethyl)-7-iodothieno[3,2-d]pyrimidin-4-amine and 6-((3S,4R)-3-aminotetrahydro-2H-pyran-4-yl)-2-chloro-N-(furan-2-ylmethyl)-7-iodothieno[3,2-d]pyrimidin-4-amine [Compound 245] | ≤ 30 nM | ≤ 30 nM
CC#CCNc1cc(Cl)nc2c(I)c([C@H]3CCCC[C@@H]3N)sc12 [Compound 283, 2-((1S,2S)-2-aminocyclohexyl)-N-(but-2-yn-1-yl)-5-chloro-3-iodothieno[3,2-b]pyridin-7-amine] | 30 to 300 nM | 30 to 300 nM
5-(5-chloro-2-((2R,3R)-3-(methylamino)tetrahydro-2H-pyran-2-yl)-7-((thiophen-2-ylmethyl)amino)thieno[3,2-b]pyridin-3-yl)pent-4-yn-1-ol and 5-(5-chloro-2-((2S,3S)-3-(methylamino)tetrahydro-2H-pyran-2-yl)-7-((thiophen-2-ylmethyl)amino)thieno[3,2-b]pyridin-3-yl)pent-4-yn-1-ol [Compound 309] | 30 to 300 nM | 30 to 300 nM
N[C@@H]1CC=CC[C@H]1c1sc2c(NCc3cccs3)cc(Cl)nc2c1I.N[C@H]1CC=CC[C@@H]1c1sc2c(NCc3cccs3)cc(Cl)nc2c1I (mixture of isomers) [Compound 365, 2-((1R,6R)-6-aminocyclohex-3-en-1-yl)-5-chloro-3-iodo-N-(thiophen-2-ylmethyl)thieno[3,2-b]pyridin-7-amine and 2-((1S,6S)-6-aminocyclohex-3-en-1-yl)-5-chloro-3-iodo-N-(thiophen-2-ylmethyl)thieno[3,2-b]pyridin-7-amine] | 30 to 300 nM | 30 to 300 nM
N[C@H]1CC=CC[C@@H]1c1sc2c(NCc3ccccc3)nc(Cl)nc2c1I [Compound 229, 6-((1S,6S)-6-aminocyclohex-3-en-1-yl)-N-benzyl-2-chloro-7-iodothieno[3,2-d]pyrimidin-4-amine] | ≤ 30 nM | ≤ 30 nM
N[C@H]1CCCO[C@@H]1c1sc2c(NCc3ccco3)nc(Cl)nc2c1Br [Compound 143, 6-((2S,3S)-3-aminotetrahydro-2H-pyran-2-yl)-7-bromo-2-chloro-N-(furan-2-ylmethyl)thieno[3,2-d]pyrimidin-4-amine] | ≤ 30 nM | ≤ 30 nM
Cc1c([C@H]2OCCC[C@@H]2N)sc2c(NCc3ccccc3)nc(Cl)nc12 [Compound 63, 6-((2S,3S)-3-aminotetrahydro-2H-pyran-2-yl)-N-benzyl-2-chloro-7-methylthieno[3,2-d]pyrimidin-4-amine] | 30 to 300 nM | 30 to 300 nM
N[C@@H]1CC=CC[C@H]1c1sc2c(NCc3ccncc3)cc(Cl)nc2c1Cl [Compound 433, 2-((1R,6R)-6-aminocyclohex-3-en-1-yl)-3,5-dichloro-N-(pyridin-4-ylmethyl)thieno[3,2-b]pyridin-7-amine] | 30 to 300 nM | 30 to 300 nM
Cc1c([C@H]2CC=C(C(=O)N3CCOCC3)C[C@@H]2N)sc2c(NCc3cccs3)cc(Cl)nc12 [Compound 313, ((4S,5S)-5-amino-4-(5-chloro-3-methyl-7-((thiophen-2-ylmethyl)amino)thieno[3,2-b]pyridin-2-yl)cyclohex-1-en-1-yl)(morpholino)methanone] | 30 to 300 nM | 30 to 300 nM
